Laboratory results: publication PMC11988671, “SIRT7 Is a Lysine Deacylase with a Preference for Depropionylation and Demyristoylation” (International Journal of Molecular Sciences, 2025)
“And” between values parts separate entries of the source, which are not always exact repeats. Equal entries are not always repeated.

Legend:
SIRT7 [1] = target: T1, SIRT7 (Mus musculus, UniProt Q8BKJ9); assay: In vitro deacylation assay of acyl-modified H3K18 peptides by SIRT7 (LC-MS/MS); format: biochemical; set-up: HaloTag (N, cleaved yes); made in house; host or cells: E. coli K12 KRX; conditions: 8 μM peptide (glutaryl 100 µM), 1.0 mM NAD^+, RNA, 24 h, 37 °C
T1 sequence (Q8BKJ9 1-402): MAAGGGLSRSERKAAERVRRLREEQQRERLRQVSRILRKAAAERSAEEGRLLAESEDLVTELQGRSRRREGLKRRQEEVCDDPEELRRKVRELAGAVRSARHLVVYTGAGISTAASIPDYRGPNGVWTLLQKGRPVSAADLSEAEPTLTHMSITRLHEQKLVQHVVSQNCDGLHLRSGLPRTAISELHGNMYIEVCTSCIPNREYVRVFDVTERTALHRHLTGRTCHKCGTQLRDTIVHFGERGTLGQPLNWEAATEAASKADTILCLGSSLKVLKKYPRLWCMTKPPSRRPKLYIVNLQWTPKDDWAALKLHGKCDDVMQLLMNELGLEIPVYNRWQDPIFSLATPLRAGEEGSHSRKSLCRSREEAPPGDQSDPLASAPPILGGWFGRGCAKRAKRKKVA
Description: (§1) In the case of the SIRT1 enzymatic reaction, 8 µM peptide was incubated in 50 µL reaction buffer containing 10 mM NaCl, 10 mM KCl, 20 mM Tris-HCl pH 8.0, 1.0 mM NAD^+, and 1 mM DTT, with or without 1 µg recombinant SIRT1. The reaction mixtures were incubated for 24 h for SIRT7 or 2 h for SIRT1 at 37 °C.
(§2) The general conditions for electrospray ionization-MS were as follows: nebulizer gas, N2, delivered at 50 psi; nebulizer gas temperature, 250 °C; capillary voltage, 3500 V; and collision gas, G1 grade N2 (Taiyo Nippon Sanso Corporation, Tokyo, Japan).

SIRT7 [2] = target: T1, SIRT7; assay: NAM inhibition assay (in vitro deacylation, LC-MS/MS); conditions: for IC50: IC50, NAM (relative IC50), wild-type SIRT7
SIRT1 [3] = target: T2, SIRT1 (Mus musculus, UniProt Q923E4); assay: In vitro deacetylation assay of H3K9Ac peptide by SIRT1 (LC-MS/MS); format: biochemical; conditions: 8 µM peptide, 1.0 mM NAD^+, 2 h, 37 °C
T2 construct: HaloTag (N, cleaved yes); made in house; host or cells: E. coli K12 KRX
T2 sequence (Q923E4 1-737): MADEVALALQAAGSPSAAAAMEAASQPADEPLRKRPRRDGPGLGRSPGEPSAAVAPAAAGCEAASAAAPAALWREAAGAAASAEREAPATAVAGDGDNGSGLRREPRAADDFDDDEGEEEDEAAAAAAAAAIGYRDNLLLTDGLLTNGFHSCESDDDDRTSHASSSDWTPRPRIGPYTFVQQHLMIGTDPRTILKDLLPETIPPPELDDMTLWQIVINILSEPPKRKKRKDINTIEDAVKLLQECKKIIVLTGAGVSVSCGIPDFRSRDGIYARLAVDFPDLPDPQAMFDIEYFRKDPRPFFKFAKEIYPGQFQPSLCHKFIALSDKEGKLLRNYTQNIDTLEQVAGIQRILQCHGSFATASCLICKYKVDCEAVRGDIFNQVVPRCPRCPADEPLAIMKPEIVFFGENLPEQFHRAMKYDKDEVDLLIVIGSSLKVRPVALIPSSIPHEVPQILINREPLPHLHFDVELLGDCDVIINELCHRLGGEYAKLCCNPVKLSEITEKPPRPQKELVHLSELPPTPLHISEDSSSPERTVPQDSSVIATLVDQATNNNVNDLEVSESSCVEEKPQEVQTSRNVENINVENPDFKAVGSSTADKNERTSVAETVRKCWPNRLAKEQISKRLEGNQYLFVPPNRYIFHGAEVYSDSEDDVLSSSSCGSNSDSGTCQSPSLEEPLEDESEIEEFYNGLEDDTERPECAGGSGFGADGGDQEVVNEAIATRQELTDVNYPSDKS
Description: as §1, §2

HEK293T cells = assay: NAD^+ assay in cells treated with FK866; format: cell-based
Description: HEK293T and Hepa1–6 cells were treated with the NAMPT inhibitor FK866 (500 pM and 8 nM, respectively), and NAD^+ and total NAD^+/NADH cellular levels were determined using an NAD^+/NADH Assay Kit-WST (#N509; Dojindo Laboratories, Kumamoto, Japan). Total NAD^+/NADH and NADH concentrations in one sample were calculated from the calibration curve, then the NAD^+ level was determined by subtracting the NADH value from the total NAD^+/NADH level.

[4] = system: SIRT7-dependent DDB1 deacetylation in HEK293T cells; assay: SIRT7-dependent DDB1 deacetylation (IP and Western blot); format: cell-based; conditions: FK866 500 pM
Description: (§3) HEK293T cells were treated with FK866 or DMSO for 24 h and transfected with the indicated plasmids using JetPRIME reagents (Polypus, Illkirch-Graffenstaden, France) for an additional 24 h. The cells were lysed in IP buffer (20 mM Tris-HCl pH 7.4, 200 mM NaCl, 2.5 mM MgCl2, 0.05% NP-40, 1 mM PMSF, and protease inhibitor cocktail (Nacalai Tesque)) supplemented with 5 mM NAM and 2.5 µM trichostatin A. The lysate was incubated on ice for 20 min and subsequently sonicated twice at 4 °C with a 20 s interval at 26% amplitude using a Sonifier SFX-150 (Branson Ultrasonics) to disrupt the cells. Following sonication, the lysate was centrifuged at 14,000× g for 15 min at 4 °C to separate cellular debris. For immunoprecipitation, 2 mg protein from each sample was incubated with anti-HA- or anti-DYKDDDDK (FLAG)-tagged beads (Fujifilm Wako Pure Chemical Corp.) for 18 h at 4 °C with gentle rotation. After washing with IP buffer, the proteins were eluted in SDS sample buffer, and lysine acetylation was detected by Western blot with an anti-acetylated lysine antibody.
(§4) For Western blot, proteins were separated by SDS-PAGE and transferred to an Immobilon-P PVDF membrane (Merck Millipore, Burlington, MA, USA), which was probed with primary and secondary antibodies. […]

[5] = system: Cd36 and Cidec expression in Hepa1–6 cells; assay: Cellular gene expression (real-time quantitative PCR); format: cell-based; conditions: FK866 8 nM, 48 h
Description: Hepa1–6 cells were exposed to 8 nM FK866 for 48 h, and the cells were incubated without fetal bovine serum for the final 24 h of treatment. Subsequently, total RNA was extracted from the cells utilizing the Sepasol RNA I Super Reagent (Nacalai Tesque). Quantitative reverse transcription (RT)-PCR was conducted using a PrimeScript RT Reagent Kit (RR047A; TaKaRa Bio, Inc., Kusatsu, Japan) followed by TB Green Premix Ex TaqII (RR820A; TaKaRa Bio, Inc.) and an ABI ViiA 7 Real-Time PCR System (Applied Biosystems, Inc., Foster City, CA, USA). The relative expression level of each gene was normalized to that of TATA box-binding protein (Tbp). The following primer sequences were used: Cd36, forward 5′-TTGGCCAAGCTATTGCGACA-3′ and reverse 5′-CTGGAGGGGTGATGCAAAGG-3′; Cidec, forward 5′-GCTGAAGGGGCAGAAGTGGA-3′ and reverse 5′-GCGCTTGGCCTTGTAGCAGT-3′; and Tbp, forward 5′-CCCCTTGTACCCTTCACCAAT-3′ and reverse 5′-GAAGCTGCGGTACAATTCCAG-3′.

[6] = system: SIRT1-dependent PPARα deacetylation in HEK293T cells; assay: SIRT1-dependent PPARα deacetylation (IP and Western blot); format: cell-based; conditions: FK866 500 pM
Description: as §3, §4

SIRT4 = system: SIRT4; set-up: method as in PMID 23746352; conditions: read-out: Km of SIRT4 for NAD^+; cited from earlier work
SIRT7-DNA and SIRT7-RNA = system: SIRT7-DNA and SIRT7-RNA; set-up: method as in PMID 35939806; conditions: compared with own H3K18Ac value in presence of RNA; read-out: Km, NAD^+ for SIRT7, previously reported value; cited from earlier work
SIRT5 = system: SIRT5; set-up: method as in PMID 23028781; conditions: read-out: Km of SIRT5 for NAD^+; cited from earlier work
SIRT1 [7] = conditions: compared with own H3K9Ac value; read-out: Km, NAD^+ for SIRT1, value reported previously; cited from earlier work
[8] = succinyl H3K18 peptide substrate

In the case of “NH2-KSTGGKAPRK^GlutarylQLATKAARKS-COOH [glutaryl peptide]”, the “Hydrolysis of acyl H3K18 peptide by SIRT7” value (“Hydrolysis” below) (SIRT7 [1]) is reported as “not detected”.
In the case of `NC(=O)c1cccnc1` [NAM, Nicotinamide], the IC50 (SIRT7 [2]; acetyl H3K18 peptide substrate) is reported as 23 µM and 23.2 µM, the IC50 (SIRT7 [2]; butyryl H3K18 peptide substrate) is reported as 613 ± 63.8 µM and the IC50 (SIRT7 [2]; myristoyl H3K18 peptide substrate) is reported as 286 ± 25.1 µM. For the same compound, the IC50 (SIRT7 [2]; octanoyl H3K18 peptide substrate) was 1110 ± 216 µM, the IC50 (SIRT7 [2]; palmitoyl H3K18 peptide substrate) was 544 ± 83.7 µM and the IC50 (SIRT7 [2]; propionyl H3K18 peptide substrate) was 787 ± 118 µM. For the same compound, the IC50 (SIRT7 [2]; [8]) was 1230 ± 268 µM and the “NAM inhibition of the desuccinylation reaction” value (SIRT7 [2]; [8]) was “did not completely inhibit”.
With “NH2-ARTKQTARK^AcetylSTGGKAPRKQLC-COOH [H3K9Ac]” the “Loss of H3K9Ac peptide and formation of deacetylated H3K9 peptide with recombinant SIRT1” value (SIRT1 [3]) was “detected”.
In the case of `O=C(/C=C/c1cccnc1)NCCCCC1CCN(C(=O)c2ccccc2)CC1` [FK866], the “Cellular NAD^+ levels” value (HEK293T cells) is reported as “decreased”, the “SIRT7-mediated DDB1 deacetylation” value [4] is reported as “abolished” and the Cd36 expression [5] is reported as “significantly decreased”. For the same compound, the Cidec expression [5] was “significantly decreased” and the “Deacetylation of PPARα by SIRT1” value [6] was “not abolished”.
In the case of “NH2-KSTGGKAPRK^SuccinylQLATKAARKS-COOH [succinyl H3K18 peptide]”, the “Hydrolysis” value (SIRT7 [1]) is reported as “catalyzed the hydrolysis”.
In the case of `NC(=O)c1ccc[n+]([C@@H]2O[C@H](COP(=O)([O-])OP(=O)(O)OC[C@H]3O[C@@H](n4cnc5c(N)ncnc54)[C@H](O)[C@@H]3O)[C@@H](O)[C@H]2O)c1` [NAD^+, Nicotinamide adenine dinucleotide], the Km (SIRT4) is given as 35 µM, the Km (SIRT7-DNA and SIRT7-RNA) is given as 480 µM and the Km (SIRT5) is given as 980 µM. For the same compound, the Km (SIRT1 [7]) was 29 µM.
For “NH2-KSTGGKAPRK^MyristoylQLATKAARKS-COOH [myristoyl H3K18 peptide]”, the “Hydrolysis” value (SIRT7 [1]) was “catalyzed the hydrolysis”.
For “NH2-KSTGGKAPRK^ButyrylQLATKAARKS-COOH [butyryl H3K18 peptide]”, the “Hydrolysis” value (SIRT7 [1]) was “catalyzed the hydrolysis”.
In the case of “NH2-KSTGGKAPRK^OctanoylQLATKAARKS-COOH [octanoyl H3K18 peptide]”, the “Hydrolysis” value (SIRT7 [1]) is reported as “catalyzed the hydrolysis”.
